# Values quoted from earlier work as cited in patent publication US20240050502A1, “AMANITA MUSCARIA COMPOUNDS” (priority 2020, published 2024).
# What was measured:
# [1] = test system: mice; details: for LD50: intravenous administration in mice
# [2] = in vivo
# [3] = test system: inflammatory pain induced by formalin; details: mice
# [4] = test system: sarcoma 180 tumors
# [5] = test system: monkey; details: quantity many times that which would cause poisoning by ingestion of Amanita muscaria in the human
compound,measurement,setting,value
N[C@H](C(=O)O)c1cc(=O)[nH]o1 [ibotenic acid],LD50,[1],15 mg/kg
same,oral LD50,"[1]; oral, mice",38 mg/kg
same,minimum dose needed to obtain psychedelic effects,[2],30 to 60 mg
fucomannogalactan,inflammatory pain induced by formalin,[3],significantly reduced
NCc1cc(=O)[nH]o1 [muscimol],LD50,[1],5.62 mg/kg
same,dose at which central nervous system intoxication occurs,[2],6.0 mg
β(1→6)-branched (1→3)-β-d-glucan,antitumor activity against sarcoma 180 tumors,[4]; mice,significant antitumor activity
same,antitumor effect when mixed with mitomycin C,[4]; mixed with the chemotherapy drug mitomycin C,greater than that of mitomycin C alone
C[C@@H]1O[C@H](C[N+](C)(C)C)C[C@H]1O [muscarine],activity by mouth,[5],inactive
